These results are taken from patent publication US11136351B2 (priority 2016, dated 2021).

Where a name gives a salt, the structure may show the parent alone. Read-outs that look alike come from different tables or passages of the source.

A word on the IC50: it is the point on the concentration scale where inhibition reaches its midpoint.

The test system of one assay is mouse HVA Ca^2+ channel. In kind it is cell-based. The note with it: 50 μM.
Assay [1] concerns HVA calcium channels in rat DRG neurons. In kind it is cell-based.
Another assay addresses human α9α10 nAChRs (Homo sapiens, UniProt Q9GZZ6+Q9UGM1). The note with it: cited from earlier work.
The next assay has as its target rat α9α10 nAChRs (Rattus norvegicus, UniProt P43144+Q9JLB5). The note with it: cited from earlier work.
A further assay addresses α7 nAChRs (Homo sapiens, UniProt P36544). The note with it: cited from earlier work.
In another assay the target is T1, human α9α10 nAChR (Homo sapiens, UniProt Q9GZZ6+Q9UGM1).
T1 construct: expressed in transfected cells; host or cells: Xenopus laevis oocytes
T1 sequence (Q9UGM1 26-479 limits assumed): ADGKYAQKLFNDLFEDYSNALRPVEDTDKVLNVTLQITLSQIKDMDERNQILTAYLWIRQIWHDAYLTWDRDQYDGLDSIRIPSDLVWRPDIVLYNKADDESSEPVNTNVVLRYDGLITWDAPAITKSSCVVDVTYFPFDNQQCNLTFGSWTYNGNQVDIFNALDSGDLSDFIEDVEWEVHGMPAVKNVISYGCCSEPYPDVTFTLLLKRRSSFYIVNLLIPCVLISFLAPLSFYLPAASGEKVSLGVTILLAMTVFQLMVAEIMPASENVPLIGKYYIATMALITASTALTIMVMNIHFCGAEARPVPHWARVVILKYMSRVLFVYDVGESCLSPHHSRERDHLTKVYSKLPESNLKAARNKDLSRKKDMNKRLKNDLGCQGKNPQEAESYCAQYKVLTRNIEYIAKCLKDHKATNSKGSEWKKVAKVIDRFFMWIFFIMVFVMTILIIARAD
T1 sequence (Q9GZZ6 25-450): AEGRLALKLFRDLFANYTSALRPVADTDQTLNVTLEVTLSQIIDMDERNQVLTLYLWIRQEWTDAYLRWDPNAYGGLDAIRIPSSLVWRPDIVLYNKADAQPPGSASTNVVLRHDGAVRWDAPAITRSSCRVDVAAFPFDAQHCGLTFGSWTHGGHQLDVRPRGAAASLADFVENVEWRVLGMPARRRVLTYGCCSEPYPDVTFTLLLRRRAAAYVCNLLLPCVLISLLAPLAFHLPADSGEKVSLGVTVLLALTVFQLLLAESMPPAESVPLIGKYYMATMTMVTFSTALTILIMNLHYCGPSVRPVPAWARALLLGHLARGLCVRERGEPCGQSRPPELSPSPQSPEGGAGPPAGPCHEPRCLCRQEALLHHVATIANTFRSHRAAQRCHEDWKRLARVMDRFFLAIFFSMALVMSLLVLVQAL
In kind it is cell-based. The conditions noted are these: 1 μM.

Sequence of human α9α10 nAChRs (Q9UGM1 26-479 limits assumed): as the sequence (Q9UGM1 26-479 limits assumed) above
Sequence of human α9α10 nAChRs (Q9GZZ6 25-450): as the sequence (Q9GZZ6 25-450) above
Sequence of α7 nAChRs (P36544 23-502 limits assumed): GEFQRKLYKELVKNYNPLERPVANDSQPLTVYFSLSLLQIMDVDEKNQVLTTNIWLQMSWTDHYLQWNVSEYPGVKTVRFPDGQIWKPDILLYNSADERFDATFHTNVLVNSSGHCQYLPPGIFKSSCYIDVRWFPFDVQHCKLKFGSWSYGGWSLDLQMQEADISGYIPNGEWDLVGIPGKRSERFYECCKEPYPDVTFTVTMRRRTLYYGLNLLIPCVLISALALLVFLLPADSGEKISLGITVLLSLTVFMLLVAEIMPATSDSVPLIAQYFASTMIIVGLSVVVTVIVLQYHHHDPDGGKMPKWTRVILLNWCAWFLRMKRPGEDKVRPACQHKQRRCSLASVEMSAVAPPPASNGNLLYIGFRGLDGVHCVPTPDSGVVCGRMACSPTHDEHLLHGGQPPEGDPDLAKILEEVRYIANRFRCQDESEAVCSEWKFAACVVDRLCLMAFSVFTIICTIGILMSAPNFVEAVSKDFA
Sequence of rat α9α10 nAChRs (P43144 26-479 limits assumed): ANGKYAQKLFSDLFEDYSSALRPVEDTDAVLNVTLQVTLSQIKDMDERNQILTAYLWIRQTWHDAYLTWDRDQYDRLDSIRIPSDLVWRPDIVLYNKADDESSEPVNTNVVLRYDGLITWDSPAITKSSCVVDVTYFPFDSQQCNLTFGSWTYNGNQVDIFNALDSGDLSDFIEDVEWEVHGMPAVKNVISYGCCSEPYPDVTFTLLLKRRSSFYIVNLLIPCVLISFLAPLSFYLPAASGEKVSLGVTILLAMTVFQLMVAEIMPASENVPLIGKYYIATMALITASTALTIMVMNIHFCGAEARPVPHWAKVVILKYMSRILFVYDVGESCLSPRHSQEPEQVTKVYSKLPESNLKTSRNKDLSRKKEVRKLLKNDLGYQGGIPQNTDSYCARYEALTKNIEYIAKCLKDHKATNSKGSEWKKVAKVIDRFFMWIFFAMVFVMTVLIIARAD
Sequence of rat α9α10 nAChRs (Q9JLB5 25-447 limits assumed): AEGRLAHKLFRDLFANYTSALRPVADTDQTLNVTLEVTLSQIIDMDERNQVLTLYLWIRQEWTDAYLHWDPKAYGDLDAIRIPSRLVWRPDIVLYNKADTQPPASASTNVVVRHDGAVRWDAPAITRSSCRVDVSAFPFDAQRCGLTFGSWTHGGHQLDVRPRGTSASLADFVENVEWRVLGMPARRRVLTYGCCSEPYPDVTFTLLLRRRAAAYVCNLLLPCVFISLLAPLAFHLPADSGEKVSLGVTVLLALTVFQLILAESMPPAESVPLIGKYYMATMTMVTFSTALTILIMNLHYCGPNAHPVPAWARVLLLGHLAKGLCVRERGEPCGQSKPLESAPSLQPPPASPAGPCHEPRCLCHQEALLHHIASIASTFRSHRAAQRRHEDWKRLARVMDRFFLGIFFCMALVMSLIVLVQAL

As for `NC[C@H](CC(=O)O)c1ccc(Cl)cc1` [Baclofen, R-(+)-baclofen hydrochloride], in the assay on mouse HVA Ca^2+ channel, the “mouse HVA Ca^2+ channel I/Icontrol ± SEM (n)” value is listed as 0.60 ± 0.03 (11) and the “peak ICa inhibition” value is reported as 41.5±2.7%. For the same compound, the “reversibility of IBa inhibition” value in assay [1] is reported as “reversible on washout”. In addition, in assay [1] (50 μM), the “IBa I/Icontrol ± SEM (n)” value is given as 0.64 ± 0.018 (36), the “fraction of total IBa suppressed” value is reported as roughly 35% and the “rat HVA Ca^2+ channel I/Icontrol ± SEM (n)” value is given as 0.64 ± 0.01 (33).

As for Vc1.1, the IC50 is 765 nM at human α9α10 nAChRs, 64 nM at rat α9α10 nAChRs and roughly 7.1 µM on α7 nAChRs. The “inhibition of HVA calcium currents by globular, ribbon and beads isomers” value in assay [1] is “found to inhibit HVA calcium currents”. Further, the “rat HVA Ca^2+ channel I/Icontrol ± SEM (n)” value in assay [1] (1 μM) is 0.73 ± 0.03 (4). For the same compound, the “human α9α10 nAChR I/Icontrol ± SEM (n)” value at human α9α10 nAChR is on record as 0.57 ± 0.020 (17).
